Reference: US4771060A, “Novel skin-whitening agent” (Teikoku Seiyaku Kabushiki Kaisha, priority 1986, dated 1988)

How the values were obtained:
[1] = tested on: tyrosinase derived from mushroom; test: Direct effect on tyrosinase activity (L-DOPA substrate); format: biochemical
Protocol: The direct effect of pionine to tyrosinase activity was studied. 0.1 ml of a solution of pionine having various concentrations was mixed with 0.1 ml of 290 unit/ml solution of tyrosinase derived from mushroom (Sigma). […]

[2] = tested on: surface melanism in yellow goldfish; test: Preventive effect on surface melanism in yellow goldfish; format: in vivo, goldfish (Ryukins); conditions: then 0.9% NaCl 12 days, 12th day, 5 fish, control 100%
Protocol: (§1) Ryukins [a kind of goldfish (weighing 3-5 g, one group: 5 fish)] were fed in water containing 1 μg/l or 10 μg/l of pionine (No. 1 compound in the above Preparations) for 20 days. The goldfish were then transferred into a water bath filled with water containing 0.9% by weight of NaCl in order to induce melanism and fed for 12 days. As a control group, the fish were fed likewise except no active compound was used. The extent of surface melanism and the activity of tyrosinase in the group administered with pionine were compared with those of the control group.

[3] = Acute toxicity, oral, rats; conditions: rat, in vivo, suspension in 0.5% sodium carboxymethylcellulose, 7 days
Protocol: A suspension of pionine in a 0.5% sodium carboxymethylcellulose solution was orally administered to Wistar rats (weighing about 130 g, one group: ten animal) with a stomach sonde. The number of dead rats were counted for 7 days, and LD50 (g/kg) was calculated by van der Werden's method. […] Thus, it is clear that pionine is a compound having an extremely wide safety range, taking into account the above experimental results that it is effective in a concentration of 10 μg/l for preventing and treating melanism of goldfish.

yellow goldfish = test: Toxicity in yellow goldfish; format: in vivo; conditions: 5 mg/l in water for three days, ten yellow goldfish
[4] = tested on: stains (chloasma) and pigmentations induced by inflammation; test: Clinical test, oral pionine; format: in vivo, human; design: key to Findings on skin: -1: deepened; 0: not changed; +1: faded; +2: completely disappeared
Protocol: A hundred μg of pionine was orally administered to each of three patients having stains (chloasma) and each of three patients having pigmentations induced by inflammation, once a day when the patients were hungry. This test was continued for 6 months. The effect of pionine was evaluated and classified into four classes by the degree of color as follows:
-1: deepened, 0: not changed, +1: faded,
+2: completely disappeared.
Evaluation by the patients themselves is also mentioned therein. Meanwhile, a patch test as to known cosmetics which were used by the patients was made for all patients before the clinical test, and if the result was positive (i.e. the known cosmetics are […]), the use of the cosmetics was prohibited.

tyrosinase = test: Determination of tyrosinase activity in scales of treated goldfish; format: in vivo, goldfish (Ryukins); conditions: scales on 12th day, control 0.06
Protocol: as §1
As samples to be tested, scales were picked from goldfish of each of groups on 12th day. The samples were each homogenized with 1M phosphate buffer (pH 6.8) and centrifuged. As to the supernatant, tyrosinase was determined by a colorimetry according to the procedure of N. H. Horowitz and Pomerantz (cf. Method in Enzymology, XVIIA, 615-626).

[5] = tested on: surface melanism in yellow goldfish; test: Therapeutic effect on surface melanism in yellow goldfish; format: in vivo, goldfish (Ryukins); conditions: for goldfish returned to their original yellow surface color: after 12 weeks, control 0%
Protocol: Ryukins (weighing 3-5 g) were fed in a 0.9% NaCl aqueous solution for 12 days to induce surface melanism. The goldfish were grouped into five fish each. In two experiment groups, the fish were fed in a water bath for 12 weeks, during which pionine was add in an amount of 1 μg/l and 10 μg/l, respectively, three times per week. In the control group, the fish were fed in pure water. The recovery from surface melanism of the experiment groups was compared with that of control group.

Black popeyed goldfish = test: Action in normal black-goldfish; format: in vivo; conditions: 10 μg/l three times per week, after 12 weeks
Protocol: Black popeyed goldfish (each group: 5 fish) were fed in a water bath. In experimental group, pionine was added to the water bath in a concentration of 10 μg/l, three times per week. In the control group, no pionine was added.

With CCCCCCCN1C(C)=CSC1=Cc1scc(C)[n+]1CCCCCCC [pionine, 4,4'-dimethyl-3,3'-di-n-heptyl-2,2'-monomethinethiazolocyanine iodide] as the molecule, how does the “effect on tyrosinase activity” value ([1]; addition of 5×10^-2 to 10^-5 % of pionine) read?
Its value is “did not affect”.

What about the tyrosinase inhibitory activity ([1]; direct effect, summary statement) of the same molecule?
The tyrosinase inhibitory activity was “no tyrosinase inhibitory activity”.

What about the “ΔOD (at 475 nm)” value ([1]; pionine 5 × 10^-2 %, 2 min., control 0.250) of the same molecule?
The value was 0.248.

What about the “ΔOD (at 475 nm)” value ([1]; pionine 5 × 10^-2 %, 5 min., control 0.540) of the same molecule?
Its value is 0.540.

And the “ΔOD (at 475 nm)” value ([1]; pionine 5 × 10^-2 %, 10 min., control 0.782)?
The value was 0.786.

What about the “ΔOD (at 475 nm)” value ([1]; pionine 5 × 10^-3 %, 2 min., control 0.250) of the same molecule?
The value was 0.252.

And the “ΔOD (at 475 nm)” value ([1]; pionine 5 × 10^-3 %, 5 min., control 0.540)?
Its value is 0.544.

What about the “ΔOD (at 475 nm)” value ([1]; pionine 5 × 10^-3 %, 10 min., control 0.782) of the same molecule?
Its value is 0.780.

What about the “ΔOD (at 475 nm)” value ([1]; pionine 5 × 10^-4 %, 2 min., control 0.250) of the same molecule?
The value was 0.252.

What about the “ΔOD (at 475 nm)” value ([1]; pionine 5 × 10^-4 %, 5 min., control 0.540) of the same molecule?
The value was 0.540.

What about the “ΔOD (at 475 nm)” value ([1]; pionine 5 × 10^-4 %, 10 min., control 0.782) of the same molecule?
Its value is 0.784.

What about the “ΔOD (at 475 nm)” value ([1]; pionine 5 × 10^-5 %, 2 min., control 0.250) of the same molecule?
Its value is 0.250.

What about the “ΔOD (at 475 nm)” value ([1]; pionine 5 × 10^-5 %, 5 min., control 0.540) of the same molecule?
The value was 0.538.

And the “ΔOD (at 475 nm)” value ([1]; pionine 5 × 10^-5 %, 10 min., control 0.782)?
The value was 0.780.

What about the “fish with surface melanism observed” value ([2]; 1 μg/l in water for 20 days) of the same molecule?
Its value is 40%.

What about the “fish with surface melanism observed” value ([2]; 10 μg/l in water for 20 days) of the same molecule?
Its value is “none”.

And the LD50 at 168 h ([3]; female Wistar rats)?
The LD50 at 168 h was 500 mg/kg.

And the LD50 at 168 h ([3]; male Wistar rats)?
The LD50 at 168 h was 470 mg/kg.

What about the abnormality (yellow goldfish) of the same molecule?
The abnormality was “no abnormality was observed”.

What about the death of fish (yellow goldfish) of the same molecule?
The death of fish was “no fish was died”.

And the “patients with positive effect” value ([4]; 5/6 patients, 100 μg orally once a day, 6 months)?
Its value is 83%.

And the Side effect ([4]; Run No. 1, 100 μg orally once a day)?
The Side effect was “No”.

And the Evaluation by patients ([4]; Run No. 1, Chloasma)?
Its Evaluation by patients is “effective”.

What about the Findings on skin ([4]; Run No. 1, Chloasma, 100 μg orally once a day, at 4th month) of the same molecule?
Its Findings on skin is “+2”.

What about the Evaluation by patients ([4]; Run No. 2, Chloasma) of the same molecule?
Its Evaluation by patients is “not effective”.

And the Findings on skin ([4]; Run No. 2, Chloasma, 100 μg orally once a day, at 6th month)?
The Findings on skin was 0.

And the Evaluation by patients ([4]; Run No. 3, Chloasma)?
Its Evaluation by patients is “effective”.

What about the Findings on skin ([4]; Run No. 3, Chloasma, 100 μg orally once a day, at 5th month) of the same molecule?
Its Findings on skin is “+2”.

And the Findings on skin ([4]; Run No. 4, Pigmentation after inflammation, 100 μg orally once a day, at 3rd month)?
The Findings on skin was “+2”.

What about the Findings on skin ([4]; Run No. 5, Pigmentation after inflammation, 100 μg orally once a day, at 5th month) of the same molecule?
The Findings on skin was “+2”.

What about the Findings on skin ([4]; Run No. 6, Pigmentation after inflammation, 100 μg orally once a day, at 3rd month) of the same molecule?
The Findings on skin was “+1”.

What about the “side effect in all patients” value ([4]; six patients, 100 μg orally once a day, 6 months) of the same molecule?
Its value is “no side effect was observed”.

What about the “tyrosinase activity, ΔOD at 475 nm/mg protein/30 min” value (tyrosinase; 1 μg/l group) of the same molecule?
Its value is 0.05 /mg protein/30 min.

And the “tyrosinase activity, ΔOD at 475 nm/mg protein/30 min” value (tyrosinase; 10 μg/l group)?
Its value is 0.02 /mg protein/30 min.

And the “goldfish returned to their original yellow surface color” value ([5]; 1 μg/l three times per week)?
The value was 40%.

And the “goldfish returned to their original yellow surface color” value ([5]; 10 μg/l three times per week)?
Its value is 80%.

And the “recovery from surface melanism” value ([5]; 1 and 10 μg/l groups, within three weeks)?
Its value is “not observed”.

And the “blackness of normal black goldfish versus control” value (Black popeyed goldfish)?
Its value is “no differences were observed”.
